Laboratory results: the supplement of paper PMC8988213

How the values were obtained:
[1] = tested on: ID211 patient-derived PDAC 2D line (post-FOLFIRINOX); assay: normalised area under dose-response curve (viability relative to DMSO, 7 doses up to 10 µM) (fraction (AUC)); higher = less sensitive (more viability retained); details: 72 h; top dose: 10 µM
Experimental: (§1)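 Patient-derived 2D PDAC cells (ID188 pre-FOLFIRINOX, passage 5+27; ID211 post-FOLFIRINOX, passage 9+11), 1,500-3,000 cells/well in 96-well plates, were treated with a 415-compound Selleck library in seven concentrations (3-fold dilution series, top 10 µM) for 72 h. Viability was read by CellTiter-Glo ATP luminescence, normalised to the DMSO control, and the area under the dose-response curve was computed with the GRmetrics R package; a lower AUC means higher sensitivity.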

[2] = tested on: ID188 patient-derived PDAC 2D line (pre-FOLFIRINOX); assay: as above; details: 72 h; top dose: 10 µM
Experimental: as §1

| Structure (SMILES) | normalised area under dose-response curve [1] | normalised area under dose-response curve [2] |
| --- | --- | --- |
| C/C(=N\NC(=S)N1CCC1)c1ccccn1 | 0.138 | 0.366 |
| C=CC(=O)N1CCC[C@@H](n2nc(-c3ccc(Oc4ccccc4)cc3)c3c(N)ncnc32)C1 | 0.71 | 0.794 |
| CC(=O)N1c2ccc(-c3ccc(C(=O)O)cc3)cc2[C@H](Nc2ccc(Cl)cc2)C[C@@H]1C | 0.732 | 0.815 |
| CC(C)(C#N)c1ccc(N2C(=O)OCc3cnc4ccc(-c5cnc6ccccc6c5)cc4c32)cc1 | 0.804 | 0.825 |
| CC(C)(C)c1nc(-c2cccc(NS(=O)(=O)c3c(F)cccc3F)c2F)c(-c2ccnc(N)n2)s1 | 0.932 | 0.738 |
| CC(C)N(CCCNC(=O)Nc1ccc(C(C)(C)C)cc1)C[C@H]1O[C@@H](n2ccc3c(N)ncnc32)[C@H](O)[C@@H]1O | 0.899 | 0.952 |
| CC(C)Oc1ccc(C(=O)N[C@H](CNC(=O)CN(C)C)Cc2ccc(-c3cn4cccc([C@H](C)O)c4n3)cc2)cc1Cl | 0.709 | 0.64 |
| CCC(CC)CC1(C(=O)Nc2ccccc2SC(=O)C(C)C)CCCCC1 | 0.859 | 0.929 |
| CCc1cc(Nc2nccc(-c3c(-c4ccc(OC)c(C(=O)Nc5c(F)cccc5F)c4)nc4ccccn34)n2)c(OC)cc1N1CCC(N2CCN(S(C)(=O)=O)CC2)CC1 | 0.829 | 0.94 |
| CCc1cnn2c(NCc3ccc[n+]([O-])c3)cc(N3CCCC[C@H]3CCO)nc12 | 0.161 | 0.426 |
| CCn1c(-c2nonc2N)nc2c(C#CC(C)(C)O)ncc(OC[C@H]3CCCNC3)c21 | 0.836 | 0.83 |
| CN1CCN(C(=O)/C=C/c2ccc([N+](=O)[O-])o2)CC1 | 0.937 | 0.954 |
| CNC(=O)c1ccc(Nc2ncc(C(F)(F)F)c(NCc3nccnc3N(C)S(C)(=O)=O)n2)cc1 | 0.761 | 0.897 |
| CNC(=O)c1nn(C)c2c1C(C)(C)Cc1cnc(Nc3ccc(N4CCN(C)CC4)cc3)nc1-2 | 0.783 | 0.776 |
| CNCCN(C)Cc1c[nH]nc1-c1ccc(O[C@H]2C[C@H](OCCC3CCOCC3)C2)cc1 | 0.92 | 0.779 |
| CNc1nc(-c2ccc3c(N)n[nH]c3c2)cc(N2C[C@@H](C(=O)NC3CCCCC3)CC[C@H]2C)n1 | 0.71 | 0.869 |
| CONC(=O)c1ccccc1Nc1cc(Nc2cc(C)nn2C(C)C)ncc1Cl | 0.844 | 0.812 |
| CO[C@@H](C(=O)N1Cc2[nH]nc(NC(=O)c3ccc(N4CCN(C)CC4)cc3)c2C1)c1ccccc1 | 0.611 | 0.766 |
| COc1cc(OC)cc(N(CCNC(C)C)c2ccc3ncc(-c4cnn(C)c4)nc3c2)c1 | 0.893 | 0.927 |
| COc1cc2c(cc1OC)CN(CCc1ccc(NC(=O)c3cccc4c(=O)c5cccc(OC)c5[nH]c34)cc1)CC2 | 0.682 | 1.02 |
| COc1ccc(-c2ccc3c(N4CCOCC4)nc(N4C[C@@H](C)O[C@@H](C)C4)nc3n2)cc1CO | 0.831 | 0.825 |
| CS(=O)(=O)CCNCc1ccc(-c2ccc3ncnc(Nc4ccc(OCc5cccc(F)c5)c(Cl)c4)c3c2)o1 | 0.614 | 0.924 |
| C[C@@H](Oc1cc(-c2cnn(C3CCNCC3)c2)cnc1N)c1c(Cl)ccc(F)c1Cl | 0.799 | 0.772 |
| C[C@@H](Oc1cc(-n2cnc3ccc(CN4CCN(C)CC4)cc32)sc1C(N)=O)c1ccccc1C(F)(F)F | 0.726 | 0.687 |

| Structure (SMILES) | normalised area under dose-response curve [1] | normalised area under dose-response curve [2] |
| --- | --- | --- |
| C[C@@H]1CN(CC(=O)Nc2ccc3c(c2)Cc2cccc(-c4cc(=O)cc(N5CCOCC5)o4)c2S3)C[C@H](C)O1 | 0.842 | 0.936 |
| C[C@H](NC(=O)CCC(F)(F)F)C(=O)N[C@@H]1C(=O)N(CCO)c2ncccc2-c2ccccc21 | 0.744 | 0.939 |
| C[C@H](NC(=O)Cc1cc(F)cc(F)c1)C(=O)N[C@@H]1C(=O)N(C)c2ccccc2-c2ccccc21 | 0.782 | 0.89 |
| Cc1cc(C)c(CNC(=O)c2cc(-c3ccc(CN4CCOCC4)cc3)cc3c2cnn3C2CCCC2)c(=O)[nH]1 | 0.812 | 0.896 |
| Cc1ccc(C(=O)N(CCCN)[C@@H](c2nc3cc(Cl)ccc3c(=O)n2Cc2ccccc2)C(C)C)cc1 | 0.697 | 0.5 |
| Cc1ccc2nc(CN(CCN(Cc3nc4ccc(C)cc4[nH]3)Cc3nc4ccc(C)cc4[nH]3)Cc3nc4ccc(C)cc4[nH]3)[nH]c2c1 | 0.676 | 1.03 |
| Cc1cccc(-c2nn3c(c2-c2ccnc4ccc(C(N)=O)cc24)CCC3)n1 | 0.965 | 0.968 |
| Cc1cccc(CC(=O)N2CCc3c2ccc(-c2cn(C)c4ncnc(N)c24)c3F)n1 | 0.959 | 0.87 |
| Cc1ncc(Cl)cc1NCc1ccc(C(=O)N[C@@H](CC2CCCC2)C(=O)NC2CC2)s1 | 0.865 | 0.923 |
| Cn1cc(-c2ccc3c(c2)CCN3C(=O)Cc2cccc(C(F)(F)F)c2)c2c(N)ncnc21 | 0.852 | 0.915 |
| Cn1cc(-c2cnn3c(N)c(Br)c([C@@H]4CCCNC4)nc23)cn1 | 0.9 | 0.873 |
| Cn1cc(/C=C2\C(=O)Nc3cccnc32)c2ccccc21 | 0.914 | 0.94 |
| Cn1cc(C2=C(c3cn(C4CCN(Cc5ccccn5)CC4)c4ccccc34)C(=O)NC2=O)c2ccccc21 | 0.933 | 0.917 |
| NS(=O)(=O)NCCNc1nonc1/C(=N/O)Nc1ccc(F)c(Br)c1 | 0.909 | 0.924 |
| Nc1[nH]nc2nnc(-c3c(-c4ccccc4)nn4ccccc34)cc12 | 0.849 | 0.847 |
| O=C(O)c1ccc(-c2c[nH]c3ncc(-c4ccccc4)cc23)cc1C1CCCC1 | 0.913 | 0.924 |
| O=C(c1cc(Cc2n[nH]c(=O)c3ccccc23)ccc1F)N1CCN(C(=O)C2CC2)CC1 | 0.865 | 0.917 |
| O=C1NC(=O)C(c2cnc3ccccn23)=C1c1cn2c3c(cc(F)cc13)CN(C(=O)N1CCCCC1)CC2 | 0.259 | 1.04 |
| O=S(=O)(O)c1ccc2cc(N=Nc3cc(S(=O)(=O)O)c4cccnc4c3O)ccc2c1 | 0.831 | 0.938 |
| O=c1cc(-c2cccc3c2Sc2ccccc2S3)oc(N2CCOCC2)c1 | 0.834 | 0.945 |
| O=c1cc(N2CCOCC2)oc2c(-c3cccc4c3sc3ccccc34)cccc12 | 0.878 | 0.991 |
| c1ccc(-c2nn3c(c2-c2ccnc4cc(OCCN5CCOCC5)ccc24)CCC3)nc1 | 0.861 | 0.974 |
| c1ccc2c(CCNc3ccc(Nc4ccncc4)cc3)c[nH]c2c1 | 0.796 | 0.88 |
